Literature values in patent US11261449B2, “Anti-cancer RNA aptamers” (CITY OF HOPE, priority 2015, dated 2022).

Assays:
[1] = system: tumor burden; conditions: intravenous injection; cited from earlier work
[2] = system: HepG2 cells; conditions: HepG2, Reebye et al.; cited from earlier work

Substance: C/EBPα-saRNA: saRNA targeting CCAAT/enhancer-binding protein-α; sense and antisense strands AW1, SEQ ID NO:22/23 (sense CGGUCAUUGUCACUGGUCAUU; antisense UGACCAGUGACAAUGACCGUU; listed as RNA, chemistry not fully specified)
- tumor burden [1]: decreased tumor burden
- cell proliferation [2]: decreases cell proliferation in HepG2 cells
